Source: patent publication US8242157B2, “Benzimidazole derivatives useful as TRPM8 channel modulators” (Janssen Pharmaceutica NV, priority 2009, dated 2012)
Counter-ions that a name gives are not always drawn. Like-named read-outs stand apart in the source and are kept apart here.

Biological target: T1, canine TRPM8 (Canis lupus familiaris, UniProt Q1A7N1)
T1 construct: expressed in transfected cells
Assay: In Vitro Canine TRPM8 Functional Assay (icilin-induced intracellular Ca2+, FLIPR/FDSS)
Type: cell-based
Conditions: for inhibition at 0.2 µM: HEK293, 0.2 μM compound, icilin activation, read-out: % Inh @ 0.2 μM
Description: The functional activity of representative compounds of the formula (I) of the present invention was quantified by measuring changes in intracellular calcium concentration using a Ca^2+-sensitive fluorescent dye. The changes in fluorescent signal were monitored by a fluorescence plate reader, either a FLIPR™ (Molecular Devices) or FDSS (Hamamatsu).
HEK293 cells stably expressing canine TRPM8 were routinely grown as monolayers in Dulbecco's minimum essential medium supplemented with 10% FBS, 2 mM L-glutamine, 100 units/mL penicillin, 100 ug/mL streptomycin and 400 μg/mL G418. Cells were maintained in 5% CO2 at 37° C. At 24 hr prior to assay, cells were seeded in black wall, clear-base poly-D-lysine coated 384-well plates (BD Biosciences, NJ, USA) at a density of 5,000 cells per well in culture medium and grown overnight in 5% CO2 at 37° C. On assay day, growth media was removed, and cells were loaded with Calcium 3 Dye (Molecular Devices) for 35 min at 37° C., under 5% CO2 and then incubated for 25 min at room temperature and atmosphere. Subsequently, cells were tested for agonist-induced increases in intracellular Ca^2+ levels using FLIPR™ or FDSS. Cells were treated with compounds of the formula (I) at varying concentrations and intracellular […] was measured for 5 min prior to the addition of icilin to all wells to achieve a final concentration that produces approximately an 80% maximal response.
Basal FI was subtracted prior to normalizing data to percent of maximal response. Curves were generated using the average of quadruplicate wells for each data point using nonlinear regression of either sigmoidal dose response or sigmoidal dose response (variable slope). Finally, the EC50 and IC50 values were calculated with the best-fit curve determined by GraphPad Prism

[1] = HEK293 cells stably expressing canine TRPM8
[2] = HEK293 cells stably expressing canine TRPM8, icilin at approx. 80% maximal response, eight-point concentration-response, read-out: IC50

T1 sequence (Q1A7N1 1-1104): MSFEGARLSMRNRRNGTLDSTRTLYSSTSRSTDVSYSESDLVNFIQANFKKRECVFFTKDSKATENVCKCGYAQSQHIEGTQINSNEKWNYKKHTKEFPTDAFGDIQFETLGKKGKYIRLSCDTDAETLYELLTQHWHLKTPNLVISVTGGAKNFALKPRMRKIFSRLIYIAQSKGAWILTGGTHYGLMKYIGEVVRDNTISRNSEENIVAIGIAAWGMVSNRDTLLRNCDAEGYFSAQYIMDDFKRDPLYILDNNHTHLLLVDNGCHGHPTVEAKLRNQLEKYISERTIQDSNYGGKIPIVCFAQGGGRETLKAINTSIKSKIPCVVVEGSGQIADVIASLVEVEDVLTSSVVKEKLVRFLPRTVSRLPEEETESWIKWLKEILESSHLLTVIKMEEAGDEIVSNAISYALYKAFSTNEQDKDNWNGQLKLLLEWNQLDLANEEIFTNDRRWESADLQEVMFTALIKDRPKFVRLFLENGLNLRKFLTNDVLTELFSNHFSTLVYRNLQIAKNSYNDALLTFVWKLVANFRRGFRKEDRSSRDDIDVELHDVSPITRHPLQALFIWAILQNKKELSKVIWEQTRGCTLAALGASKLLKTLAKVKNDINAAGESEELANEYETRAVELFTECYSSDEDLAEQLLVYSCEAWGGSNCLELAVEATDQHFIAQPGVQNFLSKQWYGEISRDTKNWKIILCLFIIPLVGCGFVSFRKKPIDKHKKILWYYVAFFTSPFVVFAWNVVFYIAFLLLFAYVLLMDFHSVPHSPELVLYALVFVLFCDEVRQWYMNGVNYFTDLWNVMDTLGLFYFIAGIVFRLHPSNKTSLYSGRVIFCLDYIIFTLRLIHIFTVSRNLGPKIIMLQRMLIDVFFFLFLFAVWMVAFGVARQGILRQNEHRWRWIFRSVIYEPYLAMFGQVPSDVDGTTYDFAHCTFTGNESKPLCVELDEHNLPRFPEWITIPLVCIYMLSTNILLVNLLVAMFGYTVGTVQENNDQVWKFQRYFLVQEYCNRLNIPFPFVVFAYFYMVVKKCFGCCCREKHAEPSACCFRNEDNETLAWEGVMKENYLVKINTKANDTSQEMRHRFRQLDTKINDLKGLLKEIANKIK

| Compound | inhibition at 0.2 µM [1] [%] | inhibition at 1 µM (re-test, 1 μM, 10 mM stock diluted with 100% DMSO prior to addition to assay buffer) [%] | IC50 (re-test, 10 mM stock diluted with 100% DMSO prior to addition to assay buffer, read-out: calculated IC50) [nM] | IC50 [2] [nM] |
| --- | --- | --- | --- | --- |
| CCCCN(c1nc2ccccc2n1Cc1ccccc1)S(=O)(=O)c1ccccc1 [Compound #1, N-(1-benzyl-1H-benzimidazol-2-yl)-N-butyl-benzenesulfonamide] | 19 | – | – | – |
| CN(c1nc2ccccc2n1C)S(=O)(=O)c1ccccc1 [Compound #3, N-methyl-N-(1-methyl-1H-benzimidazol-2-yl)-benzenesulfonamide] | 9 | 101 | 94 | – |
| CCCCN(c1nc2ccccc2n1C)S(=O)(=O)c1ccccc1 [Compound #4, N-Butyl-N-(1-methyl-1H-benzimidazol-2-yl)-benzenesulfonamide] | 92 | – | – | 41 |
| Cn1c(N(Cc2cccc(C(F)(F)F)c2)S(=O)(=O)c2ccccc2)nc2ccccc21 [Compound #12, N-(1-Methyl-1H-benzimidazol-2-yl)-N-(3-trifluoromethyl-benzyl)-benzenesulfonamide] | 102 | – | – | 3 |
| Cn1c(N(c2ccc(Cl)cc2)S(=O)(=O)c2ccccc2)nc2ccccc21 [Compound #36, N-(4-Chloro-phenyl)-N-(1-methyl-1H-benzimidazol-2-yl)-benzenesulfonamide] | 94 | – | – | 33 |
| O=S(=O)(c1ccccc1)N(Cc1ccc(C(F)(F)F)c(F)c1)c1nc2ccccc2n1CC(F)(F)F [Compound #60, N-(3-Fluoro-4-trifluoromethyl-benzyl)-N-[1-(2,2,2-trifluoro-ethyl)-1H-benzimidazol-2-yl]-benzenesulfonamide] | 89 | – | – | 27 |
| O=S(=O)(c1ccccc1)N(Cc1ccc(C(F)(F)F)c(F)c1)c1nc2ccccc2n1CC1CC1 [Compound #71, N-(1-Cyclopropylmethyl-1H-benzimidazol-2-yl)-N-(3-fluoro-4-trifluoromethyl-benzyl)-benzenesulfonamide] | 101 | – | – | 37 |
| O=S(=O)(c1ccccc1)N(Cc1ccc(C(F)(F)F)cc1)c1nc2cccc3c2n1CCO3 [Compound #72, N-(3,4-Dihydro-5-oxa-1,2a-diaza-acenaphthylen-2-yl)-N-(4-trifluoromethyl-benzyl)-benzenesulfonamide TFA salt] | 99 | – | – | 22 |
| O=S(=O)(c1ccccc1)N(Cc1ccc(OC(F)(F)F)cc1)c1nc2cccc3c2n1CCO3 [Compound #73] | 99 | – | – | 3.4 |
| CCCCN(c1nc2ccccc2n1CCO)S(=O)(=O)c1ccccc1 [compound 2, N-butyl-N-[1-(2-hydroxy-ethyl)-1H-benzimidazol-2-yl]-benzenesulfonamide] | 11 | – | – | – |
| Cn1c(N(Cc2ccc(F)cc2)S(=O)(=O)c2ccccc2)nc2ccccc21 [compound 8] | 101 | – | – | 4 |
| Cn1c(N(Cc2ccc(F)c(F)c2)S(=O)(=O)c2ccccc2)nc2ccccc21 [compound 9] | 101 | – | – | 2 |
| Cn1c(N(Cc2ccccc2)S(=O)(=O)c2ccccc2)nc2ccccc21 [compound 10] | 101 | – | – | 8 |
| Cn1c(N(Cc2ccc(C(F)(F)F)cc2)S(=O)(=O)c2ccccc2)nc2ccccc21 [compound 11] | 101 | – | – | 2 |
| Cn1c(N(Cc2cccc(OC(F)(F)F)c2)S(=O)(=O)c2ccccc2)nc2ccccc21 [compound 13] | 101 | – | – | 3 |
| Cn1c(N(Cc2ccc(F)c(C(F)(F)F)c2)S(=O)(=O)c2cccc(Cl)c2)nc2ccccc21 [compound 14] | 97 | – | – | 30 |
| Cn1c(N(Cc2ccc(F)c(C(F)(F)F)c2)S(C)(=O)=O)nc2ccccc21 [compound 17] | 99 | – | – | 5 |
| Cc1ccc(S(=O)(=O)N(Cc2ccc(F)c(C(F)(F)F)c2)c2nc3ccccc3n2C)cc1 [compound 18] | 106 | – | – | 14 |
| Cn1c(N(Cc2ccc(SC(F)(F)F)cc2)S(=O)(=O)c2ccccc2)nc2ccccc21 [compound 19] | 101 | – | – | 1 |
| Cn1c(N(Cc2ccc(C(F)(F)F)c(F)c2)S(=O)(=O)c2ccccc2)nc2ccccc21 [compound 21] | 102 | – | – | 1 |
| Cn1c(N(Cc2cc(C(F)(F)F)ccc2F)S(=O)(=O)c2ccccc2)nc2ccccc21 [compound 22] | 102 | – | – | 6 |
| Cn1c(N(Cc2ccc(OC(F)F)cc2)S(=O)(=O)c2ccccc2)nc2ccccc21 [compound 23] | 102 | – | – | 2 |
| CC(C)Cn1c(N(Cc2ccc(C(F)(F)F)cc2)S(=O)(=O)c2ccccc2)nc2ccccc21 [compound 24] | 71 | – | – | 77 |
| Cn1c(N(Cc2ccc(OC(F)(F)F)cc2)S(=O)(=O)c2ccc(Cl)cc2)nc2ccccc21 [compound 26] | 102 | – | – | 11 |

| Compound | inhibition at 0.2 µM [1] [%] | inhibition at 1 µM (re-test, 1 μM, 10 mM stock diluted with 100% DMSO prior to addition to assay buffer) [%] | IC50 (re-test, 10 mM stock diluted with 100% DMSO prior to addition to assay buffer, read-out: calculated IC50) [nM] | IC50 [2] [nM] |
| --- | --- | --- | --- | --- |
| Cn1c(N(Cc2ccc(OC(F)(F)F)cc2)S(=O)(=O)c2ccc(C(F)(F)F)cc2)nc2ccccc21 [compound 27] | 101 | – | – | 49 |
| Cn1c(N(Cc2ccc(C(F)(F)F)cc2)S(=O)(=O)c2ccc(F)cc2)nc2ccccc21 [compound 28] | 95 | – | – | 6 |
| CCn1c(N(Cc2ccc(OC(F)(F)F)cc2)S(=O)(=O)c2ccccc2)nc2ccccc21 [compound 29] | 95 | – | – | 5 |
| CCn1c(N(Cc2ccc(C(F)(F)F)cc2)S(=O)(=O)c2ccccc2)nc2ccccc21 [compound 30] | 96 | – | – | 4 |
| Cn1c(N(Cc2ccc(C(F)(F)F)cc2)S(=O)(=O)c2ccc(C(F)(F)F)cc2)nc2ccccc21 [compound 31] | 96 | – | – | 33 |
| Cn1c(N(Cc2ccc(OC(F)(F)F)cc2)S(=O)(=O)c2ccc(F)cc2)nc2ccccc21 [compound 32] | 94 | – | – | 6 |
| CCn1c(N(Cc2ccc(C(F)(F)F)c(F)c2)S(=O)(=O)c2ccccc2)nc2ccccc21 [compound 34] | 102 | – | – | 7 |
| Cn1c(N(Cc2ccc(C(F)(F)F)c(F)c2)S(=O)(=O)c2ccc(F)cc2)nc2ccccc21 [compound 38] | 102 | – | – | 11 |
| Cn1c(N(Cc2ccc(C(F)(F)F)c(F)c2)S(=O)(=O)c2ccc(Cl)cc2)nc2ccccc21 [compound 39] | 102 | – | – | 10 |
| Cn1c(N(Cc2ccc(C(F)(F)F)c(F)c2)S(=O)(=O)c2ccc(C(F)(F)F)cc2)nc2ccccc21 [compound 40] | 101 | – | – | 60 |
| Cn1c(N(Cc2ccc(C(F)(F)F)cc2)S(=O)(=O)c2ccc(Cl)cc2)nc2ccccc21 [compound 41] | 102 | – | – | 9 |
| Cn1c(N(Cc2ccc(C(F)(F)F)cc2)S(=O)(=O)c2ccccc2)nc2cc(F)ccc21 [compound 43] | 100 | – | – | 4 |
| CCn1c(N(Cc2ccc(C(F)(F)F)c(F)c2)S(=O)(=O)c2ccccc2)nc2cc(F)ccc21 [compound 48] | 100 | – | – | 7 |
| CC(C)Cn1c(N(Cc2ccc(OC(F)(F)F)cc2)S(=O)(=O)c2ccccc2)nc2ccccc21 [compound 49] | 81 | – | – | 48 |
| CC(C)Cn1c(N(Cc2ccc(C(F)(F)F)c(F)c2)S(=O)(=O)c2ccccc2)nc2ccccc21 [compound 50] | 82 | – | – | 37 |
| CC(C)n1c(N(Cc2ccc(C(F)(F)F)c(F)c2)S(=O)(=O)c2ccccc2)nc2cc(Cl)ccc21 [compound 56] | 96 | – | – | 24 |
| Cn1c(N(Cc2ccc(OC(F)(F)F)cc2)S(=O)(=O)c2ccccc2)nc2cc(F)ccc21 [compound 57] | 99 | – | – | 9 |
| Cn1c(N(Cc2ccc(C(F)(F)F)c(F)c2)S(=O)(=O)c2ccccc2)nc2cc(F)ccc21 [compound 58] | 99 | – | – | 6 |
| O=S(=O)(c1ccccc1)N(Cc1ccc(OC(F)(F)F)cc1)c1nc2ccccc2n1CC(F)(F)F [compound 59] | 76 | – | – | 77 |
| CC(C)n1c(N(Cc2ccc(OC(F)(F)F)cc2)S(=O)(=O)c2ccccc2)nc2cc(Cl)ccc21 [compound 61] | 96 | – | – | 47 |
| O=S(=O)(c1ccccc1)N(Cc1ccc(OC(F)(F)F)cc1)c1nc2cccc3c2n1CCC3 [compound 62] | 100 | – | – | 19 |
| O=S(=O)(c1ccccc1)N(Cc1ccc(C(F)(F)F)c(F)c1)c1nc2cccc3c2n1CCC3 [compound 63] | 101 | – | – | 22 |
| O=S(=O)(c1ccccc1)N(Cc1ccc(C(F)(F)F)cc1)c1nc2cccc3c2n1CCC3 [compound 65] | 101 | – | – | 17 |
